Data on twelve compounds can be found in patent US20230312550A1, “N-(2-(4-CYANOTHIAZOLIDIN-3-YL)-2-OXOETHYL)-QUINOLINE-4-CARBOXAMIDES” (AstraZeneca AB, priority 2020, published 2023).

Data set [1] has as its target human Fibroblast activation protein alpha (hFAP) (Homo sapiens (Human), UniProt Q12884). In words: hFAP inhibition assay (tight binders). Also: hFAP 2.4 pM. The settings on record: Ala-Pro-AMC 20 μM, n = 1 or geometric mean n = 2-6. Format: biochemical. The procedure: The plates were read on a PHERAstar® reader with excitation 340 nm and emission 460 nm. Data were analyzed in Genedata Screener®. IC50 values were determined by plotting % inhibition versus log compound concentration and using a one site dose response model.

The next data set in a line: Kinetic solubility. The settings on record: kinetic from dmso stock, Solubility, kinetic solubility; n = 1 or average of n = 2-3.
Data set [2] addresses Prolyl endopeptidase, Prolyl Oligopeptidase (hPREP) (Homo sapiens (Human), UniProt P48147). The data set is described as follows: hPrep inhibition assay. Type of data set: biochemical. The settings on record: hPREP 0.6 nM, Z-Gly-Pro-amino-methylcoumarin 50 μM; read-out: PREP IC50. The method, boiled down: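 Recombinant human PREP at 0.6 nM final with Z-Gly-Pro-AMC substrate at 50 μM final in Tris-HCl pH 7.5, NaCl, Triton X-100, glutathione; 15 min rt preincubation then 20 min rt reaction in dark. AMC fluorescence (ex 340/em 460 nm); IC50 from one-site dose-response fit of % inhibition.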

Data set [3] can be described thus: Metabolic stability in human liver microsomes (HLM). Conditions: human, HLM CLint, n = 1 or average of n = 2-3. (Liver microsomes are vesicles of endoplasmic reticulum, rich in cytochrome P450 enzymes.)
Experimental: Metabolic stability in HLM was measured as described in J Comput Aided Mol Des 2015, 29, 795.
Data set [4] can be described thus: Metabolic stability in rat hepatocytes (rHep). The settings on record: n = 1 or geometric mean of n = 2-3.
The target of a further data set is hFAP (M39-A757) (Homo sapiens (Human), UniProt Q12884). The data set is described as follows: hFAP binding assay (surface plasmon resonance). The settings on record: SPR, 20° C.; for Kd: n = 1 or geometric mean n = 2-4; for hFAP Binding assay k(off) / hFAP Binding assay k(on): single cycle kinetics. (In general: SPR reads the build-up and loss of mass on a sensor chip optically.)

Converted amounts (≈) assume the structure as drawn.

Sequence of human Fibroblast activation protein alpha (hFAP) (Q12884 38-760): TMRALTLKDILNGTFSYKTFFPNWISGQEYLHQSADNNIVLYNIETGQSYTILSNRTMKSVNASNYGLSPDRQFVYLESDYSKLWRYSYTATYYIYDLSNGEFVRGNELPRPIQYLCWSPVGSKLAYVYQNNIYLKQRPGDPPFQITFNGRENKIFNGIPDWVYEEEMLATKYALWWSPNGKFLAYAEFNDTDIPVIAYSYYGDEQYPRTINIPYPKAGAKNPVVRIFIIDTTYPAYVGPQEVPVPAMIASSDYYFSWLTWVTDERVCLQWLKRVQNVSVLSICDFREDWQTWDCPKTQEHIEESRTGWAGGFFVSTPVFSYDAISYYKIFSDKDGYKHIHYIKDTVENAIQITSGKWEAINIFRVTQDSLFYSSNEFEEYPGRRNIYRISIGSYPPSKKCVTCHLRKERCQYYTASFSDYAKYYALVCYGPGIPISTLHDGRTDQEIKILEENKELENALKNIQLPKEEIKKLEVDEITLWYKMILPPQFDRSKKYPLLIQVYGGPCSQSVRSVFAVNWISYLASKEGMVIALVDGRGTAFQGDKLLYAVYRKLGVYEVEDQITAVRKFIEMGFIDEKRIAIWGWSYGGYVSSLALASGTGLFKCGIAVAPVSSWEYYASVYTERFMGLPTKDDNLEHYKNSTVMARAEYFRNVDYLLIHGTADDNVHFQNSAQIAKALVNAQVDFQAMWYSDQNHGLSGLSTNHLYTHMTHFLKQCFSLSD
Sequence of hFAP (M39-A757) (Q12884 39-757): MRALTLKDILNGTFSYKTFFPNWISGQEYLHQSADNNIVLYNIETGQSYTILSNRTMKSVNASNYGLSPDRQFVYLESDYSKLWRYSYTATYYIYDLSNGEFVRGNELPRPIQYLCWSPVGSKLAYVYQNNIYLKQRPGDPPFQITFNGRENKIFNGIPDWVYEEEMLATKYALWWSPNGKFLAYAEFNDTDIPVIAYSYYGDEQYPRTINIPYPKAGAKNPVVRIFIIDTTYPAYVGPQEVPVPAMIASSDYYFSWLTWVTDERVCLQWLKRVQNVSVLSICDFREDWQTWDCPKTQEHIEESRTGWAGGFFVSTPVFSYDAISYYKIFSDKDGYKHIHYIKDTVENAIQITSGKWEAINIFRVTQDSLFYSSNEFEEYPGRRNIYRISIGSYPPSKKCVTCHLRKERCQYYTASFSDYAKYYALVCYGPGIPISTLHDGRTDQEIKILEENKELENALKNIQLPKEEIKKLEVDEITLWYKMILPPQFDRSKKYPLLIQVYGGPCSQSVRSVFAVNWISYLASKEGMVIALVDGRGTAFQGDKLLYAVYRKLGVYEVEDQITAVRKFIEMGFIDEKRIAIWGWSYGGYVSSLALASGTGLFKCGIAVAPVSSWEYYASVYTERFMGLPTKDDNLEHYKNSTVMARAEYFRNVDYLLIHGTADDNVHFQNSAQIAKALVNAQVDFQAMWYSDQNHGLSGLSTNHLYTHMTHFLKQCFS
Sequence of Prolyl endopeptidase, Prolyl Oligopeptidase (hPREP) (P48147 whole entry): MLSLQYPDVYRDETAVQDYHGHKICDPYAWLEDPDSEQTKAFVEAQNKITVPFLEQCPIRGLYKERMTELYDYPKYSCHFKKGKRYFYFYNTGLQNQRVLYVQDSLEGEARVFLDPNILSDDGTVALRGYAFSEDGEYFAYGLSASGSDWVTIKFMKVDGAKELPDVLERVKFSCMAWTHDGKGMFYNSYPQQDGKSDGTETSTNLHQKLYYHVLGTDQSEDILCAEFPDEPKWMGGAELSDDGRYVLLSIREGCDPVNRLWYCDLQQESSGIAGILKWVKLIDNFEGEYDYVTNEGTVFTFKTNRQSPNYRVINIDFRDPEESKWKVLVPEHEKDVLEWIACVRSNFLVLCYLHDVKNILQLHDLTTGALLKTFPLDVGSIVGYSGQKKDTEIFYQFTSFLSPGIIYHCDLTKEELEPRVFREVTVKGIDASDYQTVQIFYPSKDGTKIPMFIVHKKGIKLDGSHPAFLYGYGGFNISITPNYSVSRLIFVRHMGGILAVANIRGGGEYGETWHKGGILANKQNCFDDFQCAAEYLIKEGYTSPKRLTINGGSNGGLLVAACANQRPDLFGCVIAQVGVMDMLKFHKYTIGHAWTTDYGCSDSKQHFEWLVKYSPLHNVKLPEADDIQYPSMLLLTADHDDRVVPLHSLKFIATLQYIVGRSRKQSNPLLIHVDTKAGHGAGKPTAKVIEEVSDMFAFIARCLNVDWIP
Experimental for Kinetic solubility: Kinetic solubility was measured as described in Comput Aided Mol Des 2015, 29, 795.

For the compound `N#C[C@@H]1CSCN1C(=O)CNC(=O)c1ccnc2ccc(-n3cc4c(n3)CCCC4)cc12` [Example 115, (R)—N-(2-(4-Cyanothiazolidin-3-yl)-2-oxoethyl)-6-(4,5,6,7-tetrahydro-2H-indazol-2-yl)quinoline-4-carboxamide], the IC50 (as a rule, the concentration needed to halve the response being measured) in data set [1] came out at 0.04 nM; in data set [2] it was 130 nM. In the data set “Kinetic solubility”, the solubility (as a rule, the concentration that dissolves in the medium under given conditions) turned out to be 0.59 µM (≈ 0.263 µg/mL). In data set [3], the microsomal CLint – broadly, the rate of metabolic loss divided by the concentration – is 120 µL/min/mg. For the same compound, the “rHep CLint” value in data set [4] is listed as 20 μL/min/1E6. Binding on hFAP (M39-A757) was put at a Kd of 0.11 nM.

With `Cc1cc(C(F)(F)F)nn1-c1ccc2nccc(C(=O)NCC(=O)N3CSC[C@H]3C#N)c2c1` [Example 116, (R)—N-(2-(4-Cyanothiazolidin-3-yl)-2-oxoethyl)-6-(5-methyl-3-(trifluoromethyl)-1H-pyrazol-1-yl)quinoline-4-carboxamide], the IC50 in data set [1] came to 0.16 nM. In “Kinetic solubility”, this compound yielded a solubility of 490 µM (≈ 232 µg/mL). Further, the half-inhibitory concentration (IC50) in data set [2] was found to be 230 nM. In data set [3], this compound yielded a microsomal CLint of 98 µL/min/mg. Besides, the “rHep CLint” value in data set [4] was determined as 15 μL/min/1E6. At hFAP (M39-A757), the “hFAP Binding assay k(off)” value was found to be 0.0012 s⁻¹, the “hFAP Binding assay k(on)” value was found to be 7900000 M⁻¹ s⁻¹ and the Kd (commonly the concentration at which binding is half-saturated) stood at 0.15 nM.

Turning to `CC1(C)CCc2cn(-c3ccc4nccc(C(=O)NCC(=O)N5CSC[C@H]5C#N)c4c3)nc21` [Example 117, (R)—N-(2-(4-Cyanothiazolidin-3-yl)-2-oxoethyl)-6-(6,6-dimethyl-5,6-dihydrocyclopenta[c]pyrazol-2(4H)-yl)quinoline-4-carboxamide], the IC50 in data set [1] came to 0.061 nM; in data set [2], 170 nM. The concentration in solution in the data set “Kinetic solubility” (solubility) was 25 µM (≈ 11.5 µg/mL). The microsomal CLint in data set [3] came out at 170 µL/min/mg. Further, in data set [4], the “rHep CLint” value turned out to be 29 μL/min/1E6. At hFAP (M39-A757), this compound displayed a Kd of 0.06 nM.

As to `N#C[C@@H]1CSCN1C(=O)CNC(=O)c1ccnc2ccc(-n3ccc(C(F)(F)F)n3)cc12` [Example 118, (R)—N-(2-(4-Cyanothiazolidin-3-yl)-2-oxoethyl)-6-(3-(trifluoromethyl)-1H-pyrazol-1-yl)quinoline-4-carboxamide], the figures for the IC50 in data set [1] and in data set [2] were 0.1 nM and 360 nM, respectively. Moreover, the concentration in solution in “Kinetic solubility” (solubility) came to 20 µM (≈ 9.21 µg/mL). The microsomal CLint in data set [3] turned out to be 41 µL/min/mg. Moreover, the “rHep CLint” value in data set [4] is on record as 21 μL/min/1E6. The compound also yielded a Kd on hFAP (M39-A757) of 0.17 nM.

As to `N#C[C@@H]1CSCN1C(=O)CNC(=O)c1ccnc2ccc(-n3ccc4c(F)cc(F)cc43)cc12` [Example 119, (R)—N-(2-(4-Cyanothiazolidin-3-yl)-2-oxoethyl)-6-(4,6-difluoro-1H-indol-1-yl)quinoline-4-carboxamide], in data set [1], the IC50 came to 0.16 nM. The solubility in “Kinetic solubility” is 1 µM (≈ 0.477 µg/mL). Also, the IC50 in data set [2] stood at 76 nM. This compound also had a microsomal CLint in data set [3] of 68 µL/min/mg. Moreover, in data set [4], the “rHep CLint” value is on record as 27 μL/min/1E6. Also, on hFAP (M39-A757), the “hFAP Binding assay k(off)” value is 0.00031 s⁻¹; the “hFAP Binding assay k(on)” value stood at 610000 M⁻¹ s⁻¹; the affinity, expressed as Kd, was 0.39 nM.

In the case of `N#C[C@@H]1CSCN1C(=O)CNC(=O)c1ccnc2ccc(-n3ccc4cc(F)ccc43)cc12` [Example 120, (R)—N-(2-(4-Cyanothiazolidin-3-yl)-2-oxoethyl)-6-(5-fluoro-1H-indol-1-yl)quinoline-4-carboxamide], the values for the IC50 in data set [1] and in data set [2] were 0.15 nM and 25 nM, respectively. For the same compound, the solubility in “Kinetic solubility” was 0.92 µM (≈ 0.423 µg/mL). The microsomal CLint in data set [3] was determined as 100 µL/min/mg. In addition, the “rHep CLint” value in data set [4] is listed as 27 μL/min/1E6. In addition, binding at hFAP (M39-A757) was put at a Kd of 0.13 nM.

As to `Cc1ccn(-c2ccc3nccc(C(=O)NCC(=O)N4CSC[C@H]4C#N)c3c2)c1` [Example 121, (R)—N-(2-(4-Cyanothiazolidin-3-yl)-2-oxoethyl)-6-(3-methyl-1H-pyrrol-1-yl)quinoline-4-carboxamide], in data set [1], it took 0.15 nM to reach half-maximal inhibition (IC50). In the data set “Kinetic solubility”, the solubility stood at 44 µM (≈ 17.8 µg/mL). In addition, the IC50 in data set [2] is 88 nM. Moreover, in data set [3], the microsomal CLint was determined as 43 µL/min/mg. Further, the “rHep CLint” value in data set [4] amounted to 13 μL/min/1E6. Also, at hFAP (M39-A757), the “hFAP Binding assay k(off)” value is 0.000016 s⁻¹, the “hFAP Binding assay k(on)” value was determined as 1100000 M⁻¹ s⁻¹ and binding was characterised by a dissociation constant (Kd) of 0.012 nM.

Consider `N#C[C@@H]1CSCN1C(=O)CNC(=O)c1ccnc2ccc(N3CC(COC(F)(F)F)C3)cc12` [Example 130, (R)—N-(2-(4-Cyanothiazolidin-3-yl)-2-oxoethyl)-6-(3-((trifluoromethoxy)-methyl)azetidin-1-yl)quinoline-4-carboxamide], for which the IC50 in data set [1] amounted to 0.19 nM; in data set [2], 540 nM. For the same compound, the solubility in “Kinetic solubility” worked out at 16 µM (≈ 7.67 µg/mL). The same compound yielded a microsomal CLint in data set [3] (liver microsomes) of 54 µL/min/mg. Moreover, the “rHep CLint” value in data set [4] was determined as 11 μL/min/1E6. For the same compound, the Kd at hFAP (M39-A757) turned out to be 0.18 nM.

Regarding `CC1(CC(F)(F)F)CN(c2ccc3nccc(C(=O)NCC(=O)N4CSC[C@H]4C#N)c3c2)C1` [Example 131, (R)—N-(2-(4-Cyanothiazolidin-3-yl)-2-oxoethyl)-6-(3-methyl-3-(2,2,2-trifluoroethyl)azetidin-1-yl)quinoline-4-carboxamide], half-maximal inhibition in data set [1] (IC50) was put at 0.12 nM. Further, the solubility in “Kinetic solubility” stood at 140 µM (≈ 66.9 µg/mL). Also, the IC50 in data set [2] was 360 nM. Besides, in data set [3], the microsomal CLint stood at 97 µL/min/mg. For the same compound, in data set [4], the “rHep CLint” value was found to be 16 μL/min/1E6. On hFAP (M39-A757), the “hFAP Binding assay k(off)” value was determined as 0.00014 s⁻¹, the “hFAP Binding assay k(on)” value was determined as 1800000 M⁻¹ s⁻¹ and binding was characterised by a dissociation constant (Kd) of 0.033 nM.

As for `N#C[C@@H]1CSCN1C(=O)CNC(=O)c1ccnc2ccc(N3CC(OC(F)(F)F)C3)cc12` [Example 132, (R)—N-(2-(4-Cyanothiazolidin-3-yl)-2-oxoethyl)-6-(3-(trifluoromethoxy)-azetidin-1-yl)quinoline-4-carboxamide], the IC50 in data set [1] is 0.41 nM. The compound further displayed a solubility in “Kinetic solubility” of 13 µM (≈ 6.05 µg/mL). Further, the IC50 in data set [2] was found to be 3700 nM. Moreover, the microsomal CLint in data set [3] worked out at 38 µL/min/mg. The “rHep CLint” value in data set [4] is 8.5 μL/min/1E6. Further, on hFAP (M39-A757), the “hFAP Binding assay k(off)” value worked out at 0.00014 s⁻¹, the “hFAP Binding assay k(on)” value turned out to be 270000 M⁻¹ s⁻¹ and the Kd came out at 0.52 nM.

In turn, `CC1(CC(F)F)CN(c2ccc3nccc(C(=O)NCC(=O)N4CSC[C@H]4C#N)c3c2)C1` [Example 133, (R)—N-(2-(4-Cyanothiazolidin-3-yl)-2-oxoethyl)-6-(3-(2,2-difluoroethyl)-3-methylazetidin-1-yl)quinoline-4-carboxamide] displayed an IC50 in data set [1] of 0.1 nM. In addition, the solubility in “Kinetic solubility” was < 380 µM. For the same compound, the IC50 in data set [2] turned out to be 370 nM. In data set [3], this compound registered a microsomal CLint of 40 µL/min/mg. The “rHep CLint” value in data set [4] is on record as 8.8 μL/min/1E6. In addition, on hFAP (M39-A757), the “hFAP Binding assay k(off)” value was found to be 0.000073 s⁻¹; the “hFAP Binding assay k(on)” value was found to be 1200000 M⁻¹ s⁻¹; the affinity, expressed as Kd, was 0.066 nM.

In turn, `CC1(C2CC2)CN(c2ccc3nccc(C(=O)NCC(=O)N4CSC[C@H]4C#N)c3c2)C1` [Example 134, (R)—N-(2-(4-Cyanothiazolidin-3-yl)-2-oxoethyl)-6-(3-cyclopropyl-3-methylazetidin-1-yl)quinoline-4-carboxamide] yielded an IC50 in data set [1] of 0.13 nM. Further, the concentration in solution in “Kinetic solubility” (solubility) was 71 µM (≈ 30.9 µg/mL). Further, the IC50 in data set [2] worked out at 620 nM. In addition, in data set [3], the microsomal CLint worked out at 210 µL/min/mg. Moreover, the “rHep CLint” value in data set [4] turned out to be 74 μL/min/1E6. At hFAP (M39-A757), the “hFAP Binding assay k(off)” value was found to be 0.000080 s⁻¹, the “hFAP Binding assay k(on)” value came to 620000 M⁻¹ s⁻¹ and the Kd stood at 0.13 nM.
